Measured values as given in patent US6699989B1, “Antiviral and antimicrobial guanidine or biguanidine derivatives” (priority 2000, dated 2004).
Converted amounts (≈) assume the structure as drawn. Like-named read-outs stand apart in the source and are kept apart here.

Experiments:
HIV-1 = assay: PBMC assay, virus production by reverse transcriptase activity; assay type: cell-based
From the text: Method 2: PBMC Assay Method (Peripheral Blood Mononuclear cell)—Description
This assay addresses the issue of providing a rationale for further evaluation of the compound by providing evidence of in vitro anti-HIV activity against a low passage clinical strain of HIV-1. These fresh human peripheral blood mononuclear cell assays use fresh human cells obtained from the American Red Cross from uninfected, normal human donors. Mononuclear cells from these blood samples are isolated by centrifugation and infected with low passage clinical strains of HIV-1 which have been obtained by culture of blood cells from HIV-infected patients with uninfected PBMCs. Since the PBMCs are not killed by HIV infection, endpoint quantification is performed by measurement of virus production in each well by reverse transcriptase assay or p24 ELISA. These assays provide evidence that the test compounds will have efficacy against viruses, which will likely be encountered in patients without genetic changes, introduced by passage in cell culture.
Thus, PBMCs assay measures the amount of virus released from the infected cells into the tissue culture supernatant. The activity of the test compound is measured by its ability to reduce the level of virus production relative to the virus controls (cells+virus with no added compound). In PBMC culture we use reverse transcriptase activity in the supernatant to quantify the amount of virus production from the infected cells. Endpoint quantification is performed at 6 days post-infection.
Fresh human peripheral blood lymphocytes (PBL) are isolated from voluntary Red Cross donors, seronegative for HIV and HBV. Leukophoresed blood is diluted 1:1 with Dulbecco's phosphate buffered saline (PBS), layered over 14 mL of Ficoll-Hypaque density gradient in a 50 mL centrifuge tube. Tubes are then centrifuged for 30 minutes at 600×g. Banded PBLs are gently aspirated from the resulting interface and subsequently washed 2× with PBS by low speed centrifugation. […] After incubation, PBLs are centrifuged and reset in RPMI 1640 with 15% FBS, 2 mM L-glutamine, 100 U/mL. penicillin, 100 ug/mL streptomycin, 10 ug/mL gentamycin, and 20 U/mL recombinant human IL-2. PBLs are maintained in this medium at a concentration of 1-2×10E6/mL with bi-weekly medium changes, until use in assay protocol. For the PBL assay, PHA-P stimulated cells from at least two normal donors are pooled, set in fresh medium at 2×10E6/mL and plated in the interior wells of a 96 well round bottom microplate at 50 μL/well. Test drug dilutions are prepared at a 2× concentration in microtiter tubes and 100 μL of each concentration is placed in appropriate wells in a standard format. 50 μL of a predetermined dilution of virus stock is placed in each test well. Wells with cells and virus alone are used for virus control. Separate plates are identically set without virus for drug cytotoxicity studies using an XTT assay system.
In the standard PBL assay (MOI: 0.2), the assay was ended on day 7 following collection of cell free supernatant samples for reverse transcriptase activity assay. In the low MOI PBL assay (MOI: 0.02), supernatant samples were collected on day 6, day 11, and day 14 post-infection and analyzed for RT activity.

PBMCs = assay: Toxicity to PBMC, XTT; assay type: cell-based, human

Structure (SMILES): N=C(NCCCCCCNC(=N)NC(=N)N1CCN(c2cc3c(cc2F)c(=O)c(C(=O)O)cn3C2CC2)CC1)NC(=N)N1CCN(c2cc3c(cc2F)c(=O)c(C(=O)O)cn3C2CC2)CC1 [BVS-10A]
- RT ACTIVITY MEAN (HIV-1; 0.01 μg/ml, ROJO in PBMC): 6532.7 cpm
- RT ACTIVITY MEAN (HIV-1; 0.032 μg/ml, ROJO in PBMC): 7531.7 cpm
- RT ACTIVITY MEAN (HIV-1; 0.1 μg/ml, ROJO in PBMC): 5919.0 cpm
- RT ACTIVITY MEAN (HIV-1; 0.32 μg/ml, ROJO in PBMC): 5899.7 cpm
- RT ACTIVITY MEAN (HIV-1; 1 μg/ml, ROJO in PBMC): 6546.7 cpm
- RT ACTIVITY MEAN (HIV-1; 3.2 μg/ml, ROJO in PBMC): 2327.0 cpm
- RT ACTIVITY MEAN (HIV-1; 10 μg/ml, ROJO in PBMC): 274.0 cpm
- RT ACTIVITY MEAN (HIV-1; 32 μg/ml, ROJO in PBMC): 68.0 cpm
- RT ACTIVITY MEAN (HIV-1; 100 μg/ml, ROJO in PBMC): 49.3 cpm
- IC50 (HIV-1; Human immunodeficiency virus 1, PBMC, PBMCs, read-out: 50% inhibition of virus replication): 2.5 µg/mL (≈ 2.74 µM)
- activity at 0.01 µg/mL (HIV-1; Human immunodeficiency virus 1, 0.01 μg/ml, ROJO in PBMC, read-out: RT ACTIVITY % VC): 90.8%
- activity at 0.032 µg/mL (HIV-1; Human immunodeficiency virus 1, 0.032 μg/ml, ROJO in PBMC, read-out: RT ACTIVITY % VC): 105%
- activity at 0.1 µg/mL (HIV-1; Human immunodeficiency virus 1, 0.1 μg/ml, ROJO in PBMC, read-out: RT ACTIVITY % VC): 82.2%
- activity at 0.32 µg/mL (HIV-1; Human immunodeficiency virus 1, 0.32 μg/ml, ROJO in PBMC, read-out: RT ACTIVITY % VC): 82%
- activity at 1 µg/mL (HIV-1; Human immunodeficiency virus 1, 1 μg/ml, ROJO in PBMC, read-out: RT ACTIVITY % VC): 91%
- activity at 3.2 µg/mL (HIV-1; Human immunodeficiency virus 1, 3.2 μg/ml, ROJO in PBMC, read-out: RT ACTIVITY % VC): 32.3%
- activity at 10 µg/mL (HIV-1; Human immunodeficiency virus 1, 10 μg/ml, ROJO in PBMC, read-out: RT ACTIVITY % VC): 3.8%
- activity at 32 µg/mL (HIV-1; Human immunodeficiency virus 1, 32 μg/ml, ROJO in PBMC, read-out: RT ACTIVITY % VC): 0.9%
- activity at 100 µg/mL (HIV-1; Human immunodeficiency virus 1, 100 μg/ml, ROJO in PBMC, read-out: RT ACTIVITY % VC): 0.7%
- IC50 (HIV-1; Human immunodeficiency virus 1, ROJO in PBMC, RT activity, read-out: IC50): 2.54 µg/mL (≈ 2.78 µM)
- concentrations at which active in PBMCs (HIV-1; PBMCs): greater than 3.2 μg/mL
- TOXICITY % CC (PBMCs; 0.01 μg/ml, PBMC): 103.2%
- TOXICITY VALUES (XTT O.D. @ 450/650 nm) MEAN (PBMCs; 0.01 μg/ml, PBMC): 3.415 O.D.
- TOXICITY % CC (PBMCs; 0.032 μg/ml, PBMC): 103.6%
- TOXICITY VALUES (XTT O.D. @ 450/650 nm) MEAN (PBMCs; 0.032 μg/ml, PBMC): 3.426 O.D.
- TOXICITY % CC (PBMCs; 0.1 μg/ml, PBMC): 97.1%
- TOXICITY VALUES (XTT O.D. @ 450/650 nm) MEAN (PBMCs; 0.1 μg/ml, PBMC): 3.214 O.D.
- TOXICITY % CC (PBMCs; 0.32 μg/ml, PBMC): 100.9%
- TOXICITY VALUES (XTT O.D. @ 450/650 nm) MEAN (PBMCs; 0.32 μg/ml, PBMC): 3.339 O.D.
- TOXICITY % CC (PBMCs; 1 μg/ml, PBMC): 96.2%
- TOXICITY VALUES (XTT O.D. @ 450/650 nm) MEAN (PBMCs; 1 μg/ml, PBMC): 3.181 O.D.
- TOXICITY % CC (PBMCs; 3.2 μg/ml, PBMC): 103.5%
- TOXICITY VALUES (XTT O.D. @ 450/650 nm) MEAN (PBMCs; 3.2 μg/ml, PBMC): 3.424 O.D.
- TOXICITY % CC (PBMCs; 10 μg/ml, PBMC): 108.3%
- TOXICITY VALUES (XTT O.D. @ 450/650 nm) MEAN (PBMCs; 10 μg/ml, PBMC): 3.583 O.D.
- TOXICITY % CC (PBMCs; 32 μg/ml, PBMC): 97.3%
- TOXICITY VALUES (XTT O.D. @ 450/650 nm) MEAN (PBMCs; 32 μg/ml, PBMC): 3.220 O.D.
- TOXICITY % CC (PBMCs; 100 μg/ml, PBMC): 51.2%
- TOXICITY VALUES (XTT O.D. @ 450/650 nm) MEAN (PBMCs; 100 μg/ml, PBMC): 1.695 O.D.
- 50% inhibition of cell growth (PBMCs; PBMC cultures): approximately 100 μg/mL
- TC50 (PBMCs; PBMC, XTT): TC50 (μg/ml) = >100
- toxicity in PBMCs (PBMCs; at 100 μg/mL): Toxicity was detected
